Experimental data as given in patent US12319655B2, “RAF kinase inhibitors and methods of use thereof” (Deciphera Pharmaceuticals, LLC, priority 2021, dated 2025).

Assays:
[1] = target: B-Raf (V600E) (SEQ. ID NO: 4) kinase (Homo sapiens (Human), UniProt P15056, V600E); assay: Biochemical Assay for B-Raf (V600E) (1); conditions: Table J, BRAF V600E, assay version (1); read-out: BRAF VE (1) IC50
How it was run: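 Coupled pyruvate kinase/lactate dehydrogenase assay: 0.03 nM B-Raf V600E, 30.1 nM MEK, 1 mM ATP, pH 7.5 Tris/MgCl2 buffer, 1% DMSO. NADH oxidation followed at 340 nm for 6 h at 30 °C; rate from 3–4 h converted to percent inhibition, IC50 by four-parameter fit.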

[2] = test system: A375 cells; assay: A375 Cell Proliferation Assay (1); format: cell-based; conditions: Homo sapiens, A-375
How it was run: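 Resazurin fluorescence (excitation 540 nm, emission 600 nm, after a further 5-6 h) gave IC50s from triplicate compound dilution series.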

[3] = target: B-Raf kinase (SEQ. ID NO: 2) (Homo sapiens (Human), UniProt P15056); assay: Biochemical Assay for B-Raf (1); conditions: Table J, assay version (1); read-out: BRAF (1) IC50
How it was run: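 Continuous PK/LDH-coupled NADH oxidation assay, A340 read for 6 h at 30° C., with 0.13 nM B-Raf, 30.1 nM MEK substrate and 1 mM ATP in Tris pH 7.5, MgCl2, DTT, detergents, 1% DMSO. Rate taken from 4–5 h window; percent inhibition vs no-compound and known-inhibitor controls; four-parameter fit gives IC50.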

[4] = target: C-Raf kinase (SEQ. ID NO: 3) (Homo sapiens (Human), UniProt P04049, Y340D/Y341D); assay: Biochemical Assay for C-Raf (1); conditions: Table J, assay version (1); read-out: CRAF (1) IC50
How it was run: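 Coupled pyruvate kinase/LDH assay tracking NADH oxidation at 340 nm, with 0.43 nM C-Raf, 30.1 nM MEK and 1 mM ATP in pH 7.5 Tris buffer (15 mM MgCl2, 1% DMSO final). Read continuously for 6 h at 30 °C, rate taken from the 4–5 h window. IC50 from four-parameter fit of percent inhibition.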

Chain of C-Raf kinase (SEQ. ID NO: 3) (P04049 307-648 Y340D/Y341D): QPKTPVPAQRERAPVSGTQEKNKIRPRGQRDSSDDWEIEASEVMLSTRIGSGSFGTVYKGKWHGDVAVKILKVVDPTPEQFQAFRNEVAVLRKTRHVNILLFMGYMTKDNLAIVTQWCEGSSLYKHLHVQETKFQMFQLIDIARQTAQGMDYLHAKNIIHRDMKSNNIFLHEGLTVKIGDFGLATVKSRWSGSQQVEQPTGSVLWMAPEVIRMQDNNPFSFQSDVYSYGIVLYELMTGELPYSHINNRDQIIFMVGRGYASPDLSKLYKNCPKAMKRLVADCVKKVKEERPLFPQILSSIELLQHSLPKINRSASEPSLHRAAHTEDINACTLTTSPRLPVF
Chain of B-Raf kinase (SEQ. ID NO: 2) (P15056 416-766): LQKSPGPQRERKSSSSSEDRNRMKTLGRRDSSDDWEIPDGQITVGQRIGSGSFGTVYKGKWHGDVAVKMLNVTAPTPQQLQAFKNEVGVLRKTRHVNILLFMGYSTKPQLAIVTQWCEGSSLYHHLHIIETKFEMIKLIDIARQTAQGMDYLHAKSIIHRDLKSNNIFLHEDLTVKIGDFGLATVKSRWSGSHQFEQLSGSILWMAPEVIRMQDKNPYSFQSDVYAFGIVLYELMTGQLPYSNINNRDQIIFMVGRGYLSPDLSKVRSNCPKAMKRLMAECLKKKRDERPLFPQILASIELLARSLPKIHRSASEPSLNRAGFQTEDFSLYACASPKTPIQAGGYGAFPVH
Chain of B-Raf (V600E) (SEQ. ID NO: 4) kinase (P15056 416-766 V600E): as the sequence (P15056 416-766) above, with V185E counted along it

SMILES	IC50 [1]	IC50 [2]	IC50 [3]	IC50 [4]
CCOc1cc(-c2cc(NC(=O)c3ccnc(C(F)(F)F)c3)ccc2C)cc(-c2ccnc(NC(=O)C3CC3)c2)n1 [Example 12]	≤ 100 nM	100 to 500 nM	≤ 100 nM	≤ 100 nM
Cc1ccc(NC(=O)c2ccnc(C(F)(F)F)c2)cc1-c1cc(-c2ccnc(NC(=O)C3CC3)c2)n(C)c(=O)c1 [Example 13]	≤ 100 nM	1000 to 10000 nM	≤ 100 nM	≤ 100 nM
CC(=O)Nc1cc(-c2cc(-c3cc(NC(=O)c4ccnc(C(F)(F)F)c4)ccc3C)cc(C3CC3)n2)ccn1 [Example 14]	≤ 100 nM	≤ 100 nM	≤ 100 nM	≤ 100 nM
CC(=O)Nc1cc(-c2cc(-c3cc(NC(=O)c4ccnc(C(F)(F)F)c4)ccc3C)cc(N3CCOCC3)n2)ccn1 [Example 15]	≤ 100 nM	≤ 100 nM	≤ 100 nM	≤ 100 nM
Cc1ccc(NC(=O)c2ccnc(C(F)(F)F)c2)cc1-c1ccnc(-c2ccnc(N)c2)c1 [Example 16, N-(3-(2′-amino-[2,4′-bipyridin]-4-yl)-4-methylphenyl)-2-(trifluoromethyl)isonicotinamide]	≤ 100 nM	1000 to 10000 nM	≤ 100 nM	≤ 100 nM
Cc1ccc(NC(=O)c2ccnc(C(F)(F)F)c2)cc1-c1ccnc(-c2ccnc(NC(=O)CN(C)C)c2)c1 [Example 17]	≤ 100 nM	100 to 500 nM	≤ 100 nM	≤ 100 nM
Cc1ccc(NC(=O)c2ccnc(C(F)(F)F)c2)cc1-c1ccnc(-c2ccnc3c2CC(=O)N3)c1 [Example 18]	≤ 100 nM	1000 to 10000 nM	≤ 100 nM	≤ 100 nM
CC(=O)Nc1cc(-c2cc(-c3cc(NC(=O)c4ccnc(C(C)(C)C#N)c4)ccc3C)ccn2)ccn1 [Example 19]	≤ 100 nM	≤ 100 nM	≤ 100 nM	≤ 100 nM
Cc1cc(-c2cc(NC(=O)c3ccnc(C(F)(F)F)c3)ccc2C)cc(-c2ccnc3c2CC(=O)N3)n1 [Example 20]	≤ 100 nM	1000 to 10000 nM	≤ 100 nM	≤ 100 nM
Cc1ccc(NC(=O)c2cc(CN(C)C)cc(C(F)(F)F)c2)cc1-c1cncc(-c2ccnc(NC(=O)C3CC3)c2)n1 [Example 185]	≤ 100 nM	≤ 100 nM	≤ 100 nM	≤ 100 nM
Cc1ccc(NC(=O)c2ccnc(C(C)(C)F)c2)cc1-c1ccnc(-c2ccnc(NC(=O)C3CC3)c2)n1 [Example 186]	≤ 100 nM	≤ 100 nM	≤ 100 nM	≤ 100 nM
Cc1ccc(NC(=O)c2ccnc(C3(C#N)CC3)c2)cc1-c1nccc(-c2ccnc(NC(=O)C3CC3)c2)n1 [Example 187]	≤ 100 nM	≤ 100 nM	≤ 100 nM	≤ 100 nM
Cc1ccc(NC(=O)c2ccnc(C(F)F)c2)cc1-c1ccnc(-c2ccnc(NC(=O)C3CC3)c2)n1 [Example 189]	≤ 100 nM	100 to 500 nM	≤ 100 nM	≤ 100 nM
COC(C)(C)c1cc(C(=O)Nc2ccc(C)c(-c3ccnc(-c4ccnc(NC(=O)C5CC5)c4)n3)c2)ccn1 [Example 190]	≤ 100 nM	≤ 100 nM	≤ 100 nM	≤ 100 nM
CNC(=O)c1cc(-c2cccc(-c3cc(NC(=O)c4ccnc(C(C)(C)C#N)c4)ccc3C)c2)cnn1 [Example 191]	≤ 100 nM	≤ 100 nM	100 to 500 nM	≤ 100 nM
CNC(=O)c1cc(-c2cccc(-c3cc(NC(=O)c4ccnc(C(C)(C)C#N)c4)cnc3C)c2)ccn1 [Example 192]	≤ 100 nM	≤ 100 nM	100 to 500 nM	≤ 100 nM

SMILES	IC50 [1]	IC50 [2]	IC50 [3]	IC50 [4]
Cc1ncc(NC(=O)c2ccnc(C(C)(C)C#N)c2)cc1-c1ccnc(-c2ccnc(NC(=O)C3CC3)c2)n1 [Example 193]	≤ 100 nM	≤ 100 nM	≤ 100 nM	≤ 100 nM
CNC(=O)c1cc(-c2nccc(-c3cc(NC(=O)c4ccnc(C(C)(C)C#N)c4)cnc3C)n2)ccn1 [Example 194]	≤ 100 nM	500 to 1000 nM	500 to 1000 nM	100 to 500 nM
CNC(=O)c1cc(-c2nc(-c3cc(NC(=O)c4ccnc(C(C)(C)C#N)c4)ccc3C)cc(C3CC3)n2)ccn1 [Example 196]	≤ 100 nM	≤ 100 nM	100 to 500 nM	100 to 500 nM
Cc1ccc(NC(=O)c2ccnc(C(C)(C)C#N)c2)cc1-c1cccc(-c2cc(NC(=O)C3(C)CC3)ncn2)c1 [Example 197]	≤ 100 nM	≤ 100 nM	500 to 1000 nM	100 to 500 nM
CNC(=O)c1cc(-c2ccnc(-c3cc(NC(=O)c4ccnc(C(C)(C)C#N)c4)cnc3C)n2)ccn1 [Example 199]	≤ 100 nM	1000 to 10000 nM	500 to 1000 nM	100 to 500 nM
Cc1ccc(NC(=O)c2ccnc(C(C)(C)C#N)c2)cc1-c1cccc(-c2cc(NC(=O)C3(F)CC3)ncn2)c1 [Example 200]	≤ 100 nM	≤ 100 nM	100 to 500 nM	≤ 100 nM
CNC(=O)c1cc(-c2cccc(-c3cc(NC(=O)c4ccnc(C(C)(C)C#N)c4)cnc3C)c2)cnn1 [Example 201]	≤ 100 nM	100 to 500 nM	500 to 1000 nM	100 to 500 nM
Cc1ccc(NC(=O)c2cc(CN(C)C)cc(C(F)(F)F)c2)cc1-c1cccc(-c2cc(NC(=O)C3CC3)ncn2)c1 [Example 202]	≤ 100 nM	≤ 100 nM	≤ 100 nM	≤ 100 nM
Cc1ccc(NC(=O)c2ccnc(C3(C#N)CC3)c2)cc1-c1cccc(-c2cc(NC(=O)C3CC3)ncn2)c1 [Example 203]	≤ 100 nM	≤ 100 nM	≤ 100 nM	≤ 100 nM
CNC(=O)c1cc(-c2cccc(-c3cc(NC(=O)c4ccnc(C(C)(C)C#N)c4)cnc3C)c2)ncn1 [Example 204]	≤ 100 nM	100 to 500 nM	100 to 500 nM	100 to 500 nM
CNC(=O)c1cc(-c2cc(-c3cc(NC(=O)c4ccnc(C(C)(C)C#N)c4)ccc3F)ccn2)ccn1 [Example 205]	≤ 100 nM	100 to 500 nM	100 to 500 nM	≤ 100 nM
Cc1ncc(NC(=O)c2ccnc(C(C)(C)C#N)c2)cc1-c1cccc(-c2cc(N)ncn2)c1 [Example 207]	≤ 100 nM	1000 to 10000 nM	100 to 500 nM	≤ 100 nM
Cc1cc(-c2cc(NC(=O)C3CC3)ncn2)cc(-c2cc(NC(=O)c3ccnc(C(C)(C)C#N)c3)ccc2C)c1 [Example 212]	≤ 100 nM	≤ 100 nM	≤ 100 nM	≤ 100 nM
Cc1ncc(NC(=O)c2ccnc(C(C)(C)C#N)c2)cc1-c1cccc(-c2cc(NC(=O)C(C)(C)C)ncn2)c1 [Example 213]	≤ 100 nM	–	1000 to 10000 nM	500 to 1000 nM
CNC(=O)c1cc(-c2cc(-c3cc(NC(=O)c4ccnc(C(C)(C)F)c4)ccc3C)ccn2)ccn1 [Example 214]	≤ 100 nM	≤ 100 nM	100 to 500 nM	≤ 100 nM
CNC(=O)c1cc(-c2cc(-c3cc(NC(=O)c4cnnc(C5CC5)c4)ccc3C)ccn2)ccn1 [Example 215]	≤ 100 nM	500 to 1000 nM	≤ 100 nM	≤ 100 nM
